Assay results from publication PMC3069143 (Analytical chemistry, 2011).
Read-outs that look alike come from different tables or passages of the source.

Legend:
Calf thymus ds-DNA [1] = assay: ECL genotoxicity array, multi-enzyme; conditions: for ECL turnover rate R (in words): arylamines, HLE or MLE, AcCoA + NADPH
rodent [2] = conditions: cited from earlier work; for LD50 (in words): rat for styrene and NPYR, mouse for arylamines
rodent [3] = conditions: cited from earlier work
human hepatic cell lines = conditions: ref Table S2 (SI); cited from earlier work
[4] = test system: Salmonella typhimurium TA1538; conditions: ref Table S2 (SI); cited from earlier work
Calf thymus ds-DNA [5] = test system: Calf thymus ds-DNA
[6] = test system: Salmonella typhimurium TA1535; conditions: ref Table S2 (SI); cited from earlier work
[7] = 1 min enzyme reaction, RLE or HLE

In the case of `Cc1ccc(N)cc1N` [2,4-DAT, 2,4-diaminotoluene], the “R relative to 2,6-DAT” value (Calf thymus ds-DNA [1]; isomer pair 2,4-DAT vs 2,6-DAT) is given as 3 fold and the “LD50 (in words)” value (rodent [2]) is given as “small”.
For `Cc1c(N)cccc1N` [2,6-DAT, 2,6-diaminotoluene], the “ECL turnover rate R (in words)” value (Calf thymus ds-DNA [1]) is listed as “small but significant” and the “induction of liver tumors” value (rodent [3]; rat models) is listed as “fails to induce liver tumors”.
In the case of `CC(=O)Nc1ccc2c(c1)Cc1ccccc1-2` [2-AAF, N-acetyl-2-aminofluorene], the “Comet assay OTM/conc.” value (human hepatic cell lines) is listed as “large”.
For `Nc1ccc2ccccc2c1` [2-NA, 2-naphthylamine], the “ECL turnover rate R (in words)” value (Calf thymus ds-DNA [1]) was “did not generate large R”.
For `Nc1ccc(-c2ccccc2)cc1` [4-ABP, 4-aminobiphenyl], the “ECL turnover rate R (in words)” value (Calf thymus ds-DNA [1]) was “largest”.
In the case of `CN(CCCC(=O)c1cccnc1)N=O` [NNK, 4-(methylnitrosamino)-1-(3-pyridyl)-1-butanone], the “Ames mutagenicity, TA1538” value [4] is listed as “not mutagenic”, the “ECL produced relative to styrene” value (Calf thymus ds-DNA [5]; 0.2 mM substrate, either RLE or HLE, NADPH regenerating system) is listed as 2–3 times and the “substrate concentration giving measurable ECL increase” value (Calf thymus ds-DNA [5]; [7]) is listed as 0.2 mM. For the same compound, the “Comet assay OTM/conc.” value (human hepatic cell lines) was “small” and the “Ames mutagenicity, TA1535” value [6] was “only slightly mutagenic”.
In the case of `O=NN1CCCC1` [NPYR, N-nitrosopyrrolidine], the “LD50 (in words)” value (rodent [2]) is listed as “small”, the “Ames mutagenicity, TA1538” value [4] is listed as “not mutagenic” and the “substrate concentration giving measurable ECL increase” value (Calf thymus ds-DNA [5]; [7]) is listed as 0.2 mM. For the same compound, the “Ames mutagenicity, TA1535” value [6] was “only slightly mutagenic”.
For `C=Cc1ccccc1` [styrene], the “LD50 (in words)” value (rodent [2]) is given as “small”, the “ECL turnover rate R (in words)” value (Calf thymus ds-DNA [5]) is given as “small” and the “substrate concentration giving measurable ECL increase” value (Calf thymus ds-DNA [5]) is given as 1 mM. For the same compound, the “Comet assay OTM/conc.” value (human hepatic cell lines) was “small”.
For `Cc1ccccc1` [toluene], the TD50 (rodent [3]; liver TD50, rodent) is listed as 5390 mg/kg body weight per day and the LD50 (rodent [2]; rodent, single dose) is listed as 2250 mg/kg body weight.
